“And” between values parts separate entries of the source, which are not always exact repeats. Equal entries are not always repeated.
Assays:
[1] = molecular target: T1, Na,K-ATPase α2β1 isoform complex (Homo sapiens, UniProt P50993); assay: biochemical; format: biochemical; conditions: Ki ± S.E. α2, Table 2; α2β1
Experimental: (§1) Methods for transformation, culture of P. pastoris clones, protein expression of Na,K-ATPase human isoforms (α1β1, α2β1, α3β1), membrane preparation, solubilization of membranes in DDM, and purification on BD-Talon beads have been described in detail (6-9, 11, 25). In initial experiments the three purified isoform complexes (0.3-0.5 mg/ml) were eluted from the BD-Talon beads in a solution containing Imidazole 170 mM, NaCl 100 mM; Tricine.HCl 20 mM pH 7.4; C12E8, 0.1 mg/ml; SOPS 0.07 mg/ml cholesterol 0.01 mg/ml, glycerol 25%. In later experiments the isoforms complexes were reconstituted with purified FXYD1 on the BD-Talon beads together as described in detail in (10, 11) prior to elution of α1β1FXYD1, α2β1FXYD1 and α3β1FXYD1 complexes. The proteins were stored at −80° C. Protein concentration was determined with BCA (B9643 Sigma).
(§2) Inhibition of Na,K-ATPase activity of the detergent-soluble α1β1, α2β1, and α3β1 complexes by CG's was determined as described (6) using either the αβ or αβFXYD1 complexes. […] The K0.5K was estimated by varying K concentration in a medium containing a fixed total K+choline chloride of 60 mM, and constant NaCl of 140 mM. Curves were fitted to the Hill function v=Vmax*[S]^n/([S]^n+K^n), where S is the K concentration, n is the Hill coefficient and K^n is K0.5K. For comparison of different curves the ratio v/Vmax for each curve was calculated and replotted. In experiments to assess inhibition of Na,K-ATPase activity by cardiac glycosides of the present invention, the percent inhibition VCG/V0 was calculated and Ki values were obtained by fitting the data to the function VCG/V0=Ki/([CG]+Ki)+ c. Inhibition was estimated in 3-8 separate experiments and average Ki values ±SEM were calculated. Significance of differences between Kiα1 and Kiα2 was calculated by the unpaired Student's t-test (p values). […] P values <0.05 were considered significant.

[2] = test system: Na,K-ATPase α2β1 isoform complex; assay: biochemical; format: biochemical, human; conditions: for Selectivity ratio Ki α1/α2 ± S.E.: Kiα1β1/Kiα2β1
Experimental: as §1, §2

[3] = molecular target: T2, Na,K-ATPase α2β2 isoform complex (Homo sapiens, UniProt P50993); assay: biochemical
T2 construct: made in house; host or cells: Pichia pastoris SMD1165
Description: (§3) Human β1, β2 and β3 were cloned into the pHIL-D2 expression vector containing the human α1 or α2. pHIL-D2 expression vectors containing porcine (p) α1, human (h) α1 or human α2 with Hisx10 tagged porcine β1 were previously generated (7, 9). Human β1 (Accession: P05026), human β2 (Accession: P14415) and human β3 (Accession: […]) cDNAs in pSD5 vector were a gift from K. Geering Univ. Lausanne Switzerland. The open reading frames and flanking regions of hβ1, hβ2 and hβ3 (in pSD5) were amplified separately by polymerase chain reaction (PCR) using synthetic primers containing BglII and SalI cleavage sites. Each one of the amplified fragments were digested with BglII and SalI and ligated to BglII and SalI treated plasmid pHIL-D2-(pα1/His10pβ1) to generate pHIL-D2 (pα1/His10hβ1or2or3). hβ1, hβ2 and hβ3 containing fragments were excised from pHIL-D2-(pα1/His10hβ1or2or3) and subcloned into pHIL-D2-(hα1/His10pβ1) or pHIL-D2-(hα2/His10pβ1) to produce pHIL-D2-(hα1/His10hβ1or2or3) and pHIL-D2-(hα2/His10hβ1or2or3). The newly created plasmids were analyzed for correct integration and correct sequence of the insert by restriction enzymatic digestions and sequencing. DNA of each construct was prepared in large quantities in E. coli XL-1 Blue for Pichia pastoris transformation.
as §2

[4] = test system: Na,K-ATPase α2β2 isoform complex; assay: biochemical; parameters: species or system human; conditions: ratio of Ki, Table 6
Description: as §3, §2

[5] = molecular target: T3, Na,K-ATPase α2β3 isoform complex (Homo sapiens, UniProt P50993); assay: biochemical
T3 construct: made in house; host or cells: Pichia pastoris SMD1165
Description: as §3, §2

[6] = test system: Na,K-ATPase α2β3 isoform complex; assay: biochemical; parameters: species or system human; conditions: ratio of Ki, Table 6
Description: as §3, §2

cornea of rabbits = assay: Pachymetry: corneal thickness and local toxicity after topical cardiac glycosides; format: in vivo, New Zealand white rabbits; conditions: for Corneal thickness: 0.5 mM; for Corneal thickness (in words): over 4 hours, Digoxin 1 mM, DGlyN 0.5 mM, DMe 0.5 mM, ouabain 1 mM; for Corneal thickness (in words) / Redness or local irritation in conjunctiva or cornea: after 4AP; for Redness or local irritation in conjunctiva or cornea: topical
Experimental: Thus, in this study, no change in corneal thickness was detected (Table 3), indicative of lack of local toxic effects. […] Similar results were obtained with CG's applied after IB-MECA.
IOP (mm Hg) of rabbits was measured using a calibrated Pneumatonometer (Model 30, Reichert technologies, FIG. 1). A local anesthetic Oxybuprocaine HCl (0.4%, 25 μl) was applied to each cornea about a minute before IOP measurements. Two baseline IOP readings were taken before topical administration of the CG (or PBS as control) and after half an hour (Zero time). […] At zero time one drop of 4AP (40 mg/ml, 30 μl) or IB-MECA (1 μM, 30 μl) was administered to both eyes of each rabbit IOP measurements were made at different times as indicated in each experiment. In the experiments for which the IOP was elevated for several hours, 4AP was added every 1.5 hours or IB-MECA every 2 hours. […] Each experiment was repeated two or three times with similar results. In all cases the figures depict the average effect on IOP (i.e for four or six eyes) compared to control ±SEM. Where error bars are not seen in the figures, the errors are smaller than the symbols used. Significance of differences from the control was calculated by the unpaired Students t-test (p values), p values <0.05 were considered significant. Corneal thickness (μm) was measured using an ultrasonic pachymeter (Sonogage pachometer, Cleveland, USA), before and during the experiment with CG and 4AP treatments. The values represent averages of three independent measurements for each eye.

[7] = molecular target: Na,K-ATPase α1β1 isoform complex (Homo sapiens, UniProt P05023); assay: biochemical; parameters: made in house; host or cells: Pichia pastoris SMD1165; conditions: Ki, nM ± SEM α1β1, Table 6
Experimental: as §1, §2

[8] = molecular target: T1, Na,K-ATPase α2β1 isoform complex; assay: biochemical; format: biochemical; parameters: made in house; host or cells: Pichia pastoris SMD1165; conditions: Ki, nM ± SEM α2β1, Table 6
Experimental: as §1, §2

SMILES	Ki [1] [nM]	Selectivity ratio Ki α1/α2 ± S.E. [2]	Selectivity α1β1/α2/β1 ([2]; ratio of Ki, Table 6)	Ki [3] [nM]	Selectivity α1β1/α2/β2 [4]	Ki [5] [nM]	Selectivity α1β1/α2β3 [6]	Corneal thickness (cornea of rabbits; left eye, 0 h) [microns]	Corneal thickness (cornea of rabbits; left eye, 2 h) [microns]	Corneal thickness (cornea of rabbits; left eye, 4 h) [microns]	Corneal thickness (cornea of rabbits; right eye, 0 h) [microns]	Corneal thickness (cornea of rabbits; right eye, 2 h) [microns]	Corneal thickness (cornea of rabbits; right eye, 4 h) [microns]	Corneal thickness (in words) (cornea of rabbits)	Redness or local irritation in conjunctiva or cornea (cornea of rabbits)	Ki [7] [nM]	Ki [8] [nM]
CC1CN(C)CCC(OC2C(O)CC(OC3C(O)CC(OC4CCC5(C)C(CCC6C5CC(O)C5(C)C(C7=CC(=O)OC7)CCC65O)C4)OC3C)OC2C)O1 (stereo not drawn) [DMe]	15.6 ± 2.3	6.47±0.71	6.7	20.4 ± 1.8	5.07	10.8 ± 0.6	9.5	465	440	453	507	476	498	not significantly affected	neither redness nor local irritation were observed	103 ± 5.6	15.3 ± 1.2
CC1CN(CC(N)=O)CCC(OC2C(O)CC(OC3C(O)CC(OC4CCC5(C)C(CCC6C5CC(O)C5(C)C(C7=CC(=O)OC7)CCC65O)C4)OC3C)OC2C)O1 (stereo not drawn) [DGlyN]	20.4 ± 1	7.45±0.46 and 7.45	–	–	–	–	–	498	462	455	496	476	454	not significantly affected	neither redness nor local irritation were observed	–	–

Reference: patent publication US9938316B2, “Selective inhibitors of α2 isoform of Na,K-ATPase and use thereof for reduction of intra-ocular pressure and as cardiotonic agents” (priority 2013, dated 2018)
